Active and inactive are the calls of the source.
Tests used:
[1] = biological target: Heat shock protein HSP 90-alpha (Homo sapiens, UniProt P07900); type: functional, organism-based
Streptococcus = assay: Group A Streptococcus viability loss, dose response, counter-screen for streptokinase expression inhibitor project, luminescence, BacTiterGlo (AID 1915); type: functional, organism-based;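 further: potency for reduction of bacterial viability or growth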
[2] = cytotoxicity toward NIH3T3 fibroblasts, dose response, counter-screen, cell-based, ATP luminescence, mouse fibroblasts (AID 2010); type: functional;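 further: cells exposed to compound for about 90 hours before reading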
[3] = tested on: Streptococcus sp. 'group A'; assay: growth inhibition of control SK(-) GAS strain, dose response, counter-screen for streptokinase expression inhibitor project, luminescence, kanamycin, BacTiterGlo, confirmation (AID 1900); type: functional, organism-based
HEK293 = assay: inhibitors of LMP1-driven NF-kB reporter, dose response, cell-based, HEK293, luciferase, cherry-pick (AID 588343); type: functional; conditions: Homo sapiens
HeLa = assay: HeLa cell cytotoxicity, dose response, cytotoxicity control, 24 h, cherry-picked samples (AID 504726); type: functional, cell-based; conditions: Homo sapiens;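 further: potency for cytotoxicity as loss of luminescence signal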
Protein RecA = biological target: T1, Protein RecA (Mycobacterium tuberculosis, UniProt P9WHJ3); assay: Fluorescence Cell-Free Homogeneous Dose Retest to Identify Inhibitors of RecA-Intein Splicing Activity. [Related pubchem assays (depositor defined):AID2097, AID2223, AID489010, AID492950]; type: functional
T1 sequence (P9WHJ3 whole entry): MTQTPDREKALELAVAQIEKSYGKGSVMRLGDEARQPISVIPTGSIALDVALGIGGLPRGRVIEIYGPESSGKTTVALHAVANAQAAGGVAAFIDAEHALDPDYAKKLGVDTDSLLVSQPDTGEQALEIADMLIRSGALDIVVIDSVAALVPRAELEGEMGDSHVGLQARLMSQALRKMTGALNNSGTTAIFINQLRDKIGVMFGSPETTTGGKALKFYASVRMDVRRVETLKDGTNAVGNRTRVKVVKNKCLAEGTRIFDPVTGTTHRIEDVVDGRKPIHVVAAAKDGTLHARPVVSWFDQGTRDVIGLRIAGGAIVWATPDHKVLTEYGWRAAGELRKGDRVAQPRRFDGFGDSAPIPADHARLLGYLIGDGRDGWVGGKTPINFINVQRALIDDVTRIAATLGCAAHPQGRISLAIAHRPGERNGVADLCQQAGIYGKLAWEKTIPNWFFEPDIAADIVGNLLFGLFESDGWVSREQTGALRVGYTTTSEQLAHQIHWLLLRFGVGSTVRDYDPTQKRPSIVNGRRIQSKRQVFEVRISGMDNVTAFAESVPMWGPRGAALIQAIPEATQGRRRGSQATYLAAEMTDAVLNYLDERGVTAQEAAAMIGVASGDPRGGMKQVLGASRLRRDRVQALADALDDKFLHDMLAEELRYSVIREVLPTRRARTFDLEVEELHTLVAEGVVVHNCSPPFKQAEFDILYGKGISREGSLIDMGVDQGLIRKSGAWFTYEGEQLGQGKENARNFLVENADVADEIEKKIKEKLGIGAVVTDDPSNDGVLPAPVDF

[4] = biological target: T2, Replicative DNA helicase DnaB (Mycobacterium tuberculosis, UniProt P9WMR3); assay: DnaB intein splicing inhibitors, dose response, biochemical, cell-free fluorescence (AID 449749); type: functional
T2 sequence (P9WMR3 whole entry): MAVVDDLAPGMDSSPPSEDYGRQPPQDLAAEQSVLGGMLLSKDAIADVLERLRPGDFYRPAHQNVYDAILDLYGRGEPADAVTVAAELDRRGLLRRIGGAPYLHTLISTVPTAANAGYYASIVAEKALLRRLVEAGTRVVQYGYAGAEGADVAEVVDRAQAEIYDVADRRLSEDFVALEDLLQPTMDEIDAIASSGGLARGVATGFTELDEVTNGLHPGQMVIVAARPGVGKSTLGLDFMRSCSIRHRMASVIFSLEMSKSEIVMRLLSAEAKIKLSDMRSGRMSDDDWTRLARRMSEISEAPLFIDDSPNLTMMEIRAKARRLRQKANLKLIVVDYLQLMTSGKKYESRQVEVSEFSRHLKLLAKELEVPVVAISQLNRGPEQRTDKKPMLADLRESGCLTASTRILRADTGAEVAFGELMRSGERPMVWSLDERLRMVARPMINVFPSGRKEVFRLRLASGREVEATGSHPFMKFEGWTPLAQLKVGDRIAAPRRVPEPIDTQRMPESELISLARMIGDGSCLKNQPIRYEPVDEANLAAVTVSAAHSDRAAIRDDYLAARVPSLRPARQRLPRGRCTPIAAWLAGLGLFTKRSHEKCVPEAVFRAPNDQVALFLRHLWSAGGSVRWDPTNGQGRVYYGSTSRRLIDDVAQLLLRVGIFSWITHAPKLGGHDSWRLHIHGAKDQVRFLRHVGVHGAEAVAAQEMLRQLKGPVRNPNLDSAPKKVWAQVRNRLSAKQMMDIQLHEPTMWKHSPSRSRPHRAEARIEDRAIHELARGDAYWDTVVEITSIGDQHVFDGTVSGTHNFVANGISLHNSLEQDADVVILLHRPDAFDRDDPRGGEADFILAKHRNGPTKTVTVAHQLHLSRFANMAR

Hexokinase HKDC1 = biological target: T3, Hexokinase HKDC1 (Homo sapiens, UniProt Q2TB90); assay: HKDC1 hexokinase inhibitors, dose response, biochemical, W721R variant (AID 504729); type: functional
T3 sequence (Q2TB90 whole entry): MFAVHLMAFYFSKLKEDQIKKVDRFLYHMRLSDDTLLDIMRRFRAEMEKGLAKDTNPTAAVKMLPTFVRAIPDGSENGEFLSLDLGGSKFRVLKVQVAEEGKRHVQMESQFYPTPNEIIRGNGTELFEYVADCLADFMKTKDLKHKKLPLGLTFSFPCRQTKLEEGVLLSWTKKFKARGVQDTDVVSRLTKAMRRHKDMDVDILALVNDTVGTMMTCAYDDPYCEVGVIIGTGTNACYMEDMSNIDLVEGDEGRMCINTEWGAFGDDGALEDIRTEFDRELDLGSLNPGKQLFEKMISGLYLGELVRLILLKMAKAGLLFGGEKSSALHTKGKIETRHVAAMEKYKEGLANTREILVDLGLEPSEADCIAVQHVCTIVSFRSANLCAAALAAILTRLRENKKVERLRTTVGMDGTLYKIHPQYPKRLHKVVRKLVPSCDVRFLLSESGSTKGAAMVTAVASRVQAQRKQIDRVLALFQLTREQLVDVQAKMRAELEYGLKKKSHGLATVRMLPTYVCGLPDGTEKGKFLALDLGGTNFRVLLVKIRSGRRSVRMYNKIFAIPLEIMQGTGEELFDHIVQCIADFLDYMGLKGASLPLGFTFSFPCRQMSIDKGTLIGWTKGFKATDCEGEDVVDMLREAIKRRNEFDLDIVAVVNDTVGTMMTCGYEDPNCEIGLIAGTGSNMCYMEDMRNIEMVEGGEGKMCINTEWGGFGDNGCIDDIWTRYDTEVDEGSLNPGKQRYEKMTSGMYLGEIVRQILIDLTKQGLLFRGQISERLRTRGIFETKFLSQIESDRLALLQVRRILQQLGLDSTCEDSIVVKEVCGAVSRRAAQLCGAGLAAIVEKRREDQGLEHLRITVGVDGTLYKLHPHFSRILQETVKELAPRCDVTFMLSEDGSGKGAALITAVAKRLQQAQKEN

| SMILES | AC50 [1] | EC50 (Streptococcus) | EC50 [2] | EC50 [3] | AC50 (HEK293) | AC50 (HeLa) | EC50 (Protein RecA) | AC50 [4] | IC50 (Hexokinase HKDC1) |
| --- | --- | --- | --- | --- | --- | --- | --- | --- | --- |
| CCCCC(=O)NC(c1ccco1)c1cc(Cl)c2cccnc2c1O (stereo unspecified) | 4.37 µM (active) | 8.22 µM (active) | 3.65 µM (active) | 4 µM (active) |  |  |  |  |  |
| CCCCC(=O)NC(c1ccc(Cl)cc1)c1ccc2cccnc2c1O (stereo unspecified) | 15 µM (active) |  | 0.617 µM (active) |  | 4.59 µM (active) |  |  |  |  |
| COc1ccc2noc3c2c1C(=O)c1ccccc1-3 |  |  |  |  |  | 74.7 µM (active) | 3.61 µM (active) | 1.18 µM (inconclusive) |  |
| CCc1ccc2c(c1)C(NC(C)=O)C(=O)N2CCN1CCOCC1 (stereo unspecified) |  |  |  |  |  |  | 16.8 µM (active) | 22.3 µM (active) | 6.27 µM (active) |
| O=C(N/N=C/c1ccccc1O)/C(O)=C\C1=NC2(CCCC2)Cc2ccccc21 |  | 11.2 µM (active) |  | 3.18 µM (active) | 33.4 µM (active) |  |  |  |  |

Reference: ChEMBL document CHEMBL1201862, “PubChem BioAssay data set” (2004)
